Test results taken from publication PMC9821843, “Powerful Potential of Polyfluoroalkyl-Containing 4-Arylhydrazinylidenepyrazol-3-ones for Pharmaceuticals” (Molecules, 2022).
≈ marks a conversion by molar mass, not a printed value.

Experiments:
[1] = target: T1, equine serum butyrylcholinesterase (BChE, EC 3.1.1.8) (Equus caballus, UniProt P81908); experiment: Inhibition of equine serum butyrylcholinesterase (Ellman assay); format: biochemical; settings: read-out: Inhibition % at 20 µM, Equine BChE
T1 construct: equine serum butyrylcholinesterase (BChE, EC 3.1.1.8); purchased Sigma-Aldrich (Saint Louis, MO, USA); host or cells: equine serum
T1 sequence (P81908 whole entry): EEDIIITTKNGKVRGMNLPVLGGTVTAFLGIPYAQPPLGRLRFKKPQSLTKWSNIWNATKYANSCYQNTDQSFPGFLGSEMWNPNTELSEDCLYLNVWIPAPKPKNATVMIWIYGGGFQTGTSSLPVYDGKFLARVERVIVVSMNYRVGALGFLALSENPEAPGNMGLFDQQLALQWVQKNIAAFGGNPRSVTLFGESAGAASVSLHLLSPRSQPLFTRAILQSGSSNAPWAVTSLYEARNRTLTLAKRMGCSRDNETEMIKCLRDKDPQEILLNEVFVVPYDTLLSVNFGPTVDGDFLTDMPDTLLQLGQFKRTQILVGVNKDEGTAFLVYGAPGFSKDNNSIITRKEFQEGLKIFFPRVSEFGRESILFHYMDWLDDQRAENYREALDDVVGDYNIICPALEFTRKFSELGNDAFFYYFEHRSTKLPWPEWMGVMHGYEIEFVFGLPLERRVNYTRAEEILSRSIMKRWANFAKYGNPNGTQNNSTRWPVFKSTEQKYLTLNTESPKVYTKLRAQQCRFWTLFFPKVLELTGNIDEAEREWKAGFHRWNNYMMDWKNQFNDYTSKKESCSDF
Outline: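 Ellman colorimetric assay with 0.02 unit/mL BChE, 1 mM butyrylthiocholine iodide and 0.33 mM DTNB, 2% (v/v) DMSO final; substrate added after enzyme-compound mixing. Residual activity versus inhibitor-free control, blanks without enzyme; triplicates, IC50 by linear regression.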

[2] = system: human dermal fibroblasts; experiment: Cytotoxicity against human dermal fibroblasts (MTT assay); format: cell-based; settings: Fibroblast, 72 h, MTT, n.a. = inactive, read-out: IC50, Human Dermal Fibroblasts
Method: (§1) Cytotoxicity of compounds was evaluated using a culture of human dermal fibroblasts, which were isolated in the Laboratory of Cell Cultures of the Institute of Medical Cell Technologies, Ekaterinburg, Russia and a HeLa tumor cell line obtained at the shared research facility «Vertebrate cell culture collection» of the Institute of Cytology of the Russian Academy of Sciences, St. Petersburg, Russia. Cells were seeded in 96-well plates in the inoculum dose of 2 × 10^5 cells/mL and cultured for 24 h in DMEM, with 1% glutamine in the presence of 10% fetal bovine serum and gentamicin (50 mg/L) at 37 °C, with humidified atmosphere of 5% CO2. Then compounds, which were dissolved in DMSO, were added to the wells at the final concentrations of 10^–7, 10^–6, 10^–5 and 10^–4 M. The cells were incubated with compounds for 72 h, after which cell viability was assessed using the standard MTT assay. The assay was carried out in four replicates with negative (culture medium), positive (solution of the cytotoxic drug camptothecin at a concentration of 3 mM) controls and the solvent control (DMSO). The results of the MTT assay were evaluated on a Tecan Infinite M200 PRO (Tecan Austria GmbH, Grödig, Austria) plate spectrophotometer by comparing the optical density of a formazan solution at 570 nm in the assay and control wells. The half maximal inhibitory concentrations (IC50) were calculated by AAT Bioquest-calculator (https://www.aatbio.com/tools/ic50-calculator (accessed on 14 November 2022)).

[3] = Oxygen radical absorbance capacity (ORAC-FL) assay; settings: n.a. = inactive; i.t.s. = interferes with test system
Outline: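 Fluorescein oxidative degradation by the peroxyl radical generator AAPH is monitored in the presence of test compound, a HAT-based read-out. Activity is expressed relative to Trolox as reference antioxidant.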

[4] = system: HeLa tumor cell line; experiment: Cytotoxicity against HeLa cells (MTT assay); format: cell-based, human; settings: for IC50: Homo sapiens, HeLa, 72 h, MTT, n.a. = inactive, read-out: IC50, HeLa; for Selectivity Index (SI): ratio of average IC50 in normal fibroblasts to average IC50 for HeLa
Method: as §1

[5] = system: Microsporum canis RCPF F 1643/1585; experiment: Antifungal susceptibility testing, M. canis; settings: for MIC: Microsporum canis, RCPFF1643/1585, read-out: MIC for fungi strains inhibition, M. canis
Source text: (§2) The solvent was DMSO. […] In each test, a growth control and a sterility control were used.

[6] = target: T2, human erythrocyte acetylcholinesterase (AChE, EC 3.1.1.7) (Homo sapiens, UniProt P22303); experiment: Inhibition of human erythrocyte acetylcholinesterase (Ellman assay); format: biochemical; settings: read-out: Inhibition % at 20 µM, Human AChE
T2 construct: human erythrocyte acetylcholinesterase (AChE, EC 3.1.1.7); purchased Sigma-Aldrich (Saint Louis, MO, USA); host or cells: human erythrocytes
T2 sequence (P22303 32-617 isoform P22303-2 limits assumed): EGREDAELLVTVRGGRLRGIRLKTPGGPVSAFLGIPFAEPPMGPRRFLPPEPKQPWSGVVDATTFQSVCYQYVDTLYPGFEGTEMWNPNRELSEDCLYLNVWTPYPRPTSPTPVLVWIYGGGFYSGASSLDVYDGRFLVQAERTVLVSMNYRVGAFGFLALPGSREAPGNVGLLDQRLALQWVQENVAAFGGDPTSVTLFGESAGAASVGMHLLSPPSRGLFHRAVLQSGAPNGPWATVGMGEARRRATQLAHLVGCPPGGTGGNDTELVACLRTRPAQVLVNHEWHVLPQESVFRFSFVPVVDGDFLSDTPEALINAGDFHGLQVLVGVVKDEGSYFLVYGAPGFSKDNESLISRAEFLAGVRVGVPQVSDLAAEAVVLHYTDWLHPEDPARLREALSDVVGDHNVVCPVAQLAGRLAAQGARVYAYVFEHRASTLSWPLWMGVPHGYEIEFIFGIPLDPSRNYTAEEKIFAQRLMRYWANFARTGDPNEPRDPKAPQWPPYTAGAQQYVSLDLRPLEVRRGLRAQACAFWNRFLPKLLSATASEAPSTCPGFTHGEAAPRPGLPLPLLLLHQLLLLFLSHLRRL
Outline: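 Colorimetric Ellman read-out with acetylthiocholine iodide substrate and DTNB, under standard reversible-inhibitor conditions, 2% (v/v) final DMSO. Enzyme-free blanks corrected for non-enzymatic hydrolysis; triplicate runs, IC50 from regression plots.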

[7] = system: Trichophyton rubrum RCPF F 1408; experiment: Antifungal susceptibility testing, T. rubrum; settings: for MIC: Trichophyton rubrum, RCPFF1408, read-out: MIC for fungi strains inhibition, T. rubrum
Source text: as §2

[8] = system: Candida albicans RCPF Y 401/NCTC 885/653; experiment: Antifungal susceptibility testing, C. albicans; settings: NCTC885, read-out: MIC for fungi strains inhibition, C. albicans
Source text: as §2

[9] = system: Epidermophyton floccosum RCPF F 1659/17; experiment: Antifungal susceptibility testing, E. floccosum; settings: for MIC: Epidermophyton floccosum, RCPFF1659/17, read-out: MIC for fungi strains inhibition, E. floccosum
Source text: as §2

Structure (SMILES) | inhibition at 20 µM [1] [%] | IC50 [2] [µM] | ORAC-FL (TE, antioxidant activity in Trolox equivalents) [3] | IC50 [4] [µM] | Selectivity Index (SI) [4] | MIC [5] [µg/mL] | inhibition at 20 µM [6] [%] | MIC [7] [µg/mL] | MIC [8] [µg/mL] | MIC [9] [µg/mL] | MIC for fungi strains inhibition, M. canis [5] [µg/mL] | MIC for fungi strains inhibition, T. rubrum [7] [µg/mL] | MIC for fungi strains inhibition, E. floccosum [9] [µg/mL]
Cc1ccc(N/N=C2\C(=O)NN=C2C(F)(F)C(F)(F)F)cc1 [6a, (4Z)-4-[2-(4-Methylphenyl)hydrazinylidene]-5-(pentafluoroethyl)-2,4-dihydro-3H-pyrazol-3-one] | 3.3 ± 0.9 | 13 ± 2.56 | 2.67 ± 0.29 | 1.47 ± 0.13 | 8.83 |  |  |  |  |  |  |  | 
CS(=O)(=O)c1ccc(N/N=C2\C(=O)N(c3ccccc3)N=C2C(F)(F)F)cc1 [5m, (4Z)-4-(2-[4-(Methylsulfonyl)phenyl]hydrazinylidene)-2-phenyl-5-(trifluoromethyl)-2,4-dihydro-3H-pyrazol-3-one] | 4 ± 1 |  | i.t.s. |  |  | > 200 | 5.5 ± 0.5 | 100 (≈ 244 µM) | > 200 | > 200 |  |  | 
Cc1ccc(N/N=C2\C(=O)NN=C2C(F)(F)F)cc1 [5b, (4Z)-4-[2-(4-Methylphenyl)hydrazinylidene]-5-(trifluoromethyl)-2,4-dihydro-3H-pyrazol-3-one] |  | 8.18 ± 0.73 | 2.37 ± 0.32 | 2.26 ± 0.14 | 3.62 | 100 (≈ 370 µM) |  | 50 (≈ 185 µM) | 200 (≈ 740 µM) | > 200 |  |  | 
CC1=NN(c2ccccc2)C(=O)/C1=N\Nc1ccc(C)cc1 [9b, (4Z)-5-Methyl-4-[2-(4-methylphenyl)hydrazinylidene]-2-phenyl-2,4-dihydro-3H-pyrazol-3-one] |  | 24.1 ± 3.21 | 2.67 ± 0.58 | 46.5 ± 1.98 | 0.52 | > 200 |  | > 200 | > 200 | > 200 |  |  | 
Cc1ccc(N/N=C2\C(=O)N(c3ccccc3)N=C2C(F)(F)C(F)(F)C(F)(F)F)cc1 [7b, (4Z)-5-(Heptafluoropropyl)-4-[2-(4-methylphenyl)hydrazinylidene]-2-phenyl-2,4-dihydro-3H-pyrazol-3-one] | 4.5 ± 1.2 | 73.8 ± 5.32 |  | 59.7 ± 6.34 | 1.24 |  | 12.6 ± 1.8 |  |  |  |  |  | 
O=C1NN=C(C(F)(F)F)/C1=N/Nc1ccccc1 [5a, (Z)-4-(2-Phenylhydrazinylidene)-5-(trifluoromethyl)-2,4-dihydro-3H-pyrazol-3-one] | 10.7 ± 1.8 |  | 2.30 ± 0.20 |  |  |  | 12.8 ± 2.3 |  |  |  |  |  | 
O=C1NN=C(C(F)(F)F)/C1=N/Nc1ccc(Br)cc1 [5c, (4Z)-4-[2-(4-Bromophenyl)hydrazinylidene]-5-(trifluoromethyl)-2,4-dihydro-3H-pyrazol-3-one] | 5.9 ± 1 |  | 1.73 ± 0.21 |  |  | 25 (≈ 74.6 µM) | 3.4 ± 0.6 | 12.5 (≈ 37.3 µM) | > 200 | 12.5 (≈ 37.3 µM) | 25 | 12.5 | 12.5
Cc1ccc(N/N=C2\C(=O)N(c3ccccc3)N=C2C(F)(F)C(F)(F)F)cc1 [6b, (4Z)-4-[2-(4-Methylphenyl)hydrazinylidene]-5-(pentafluoroethyl)-2-phenyl-2,4-dihydro-3H-pyrazol-3-one] | 5.7 ± 1.3 | 98.6 ± 6.32 |  | 65.9 ± 5.22 | 1.49 |  | 8.3 ± 1.4 |  |  |  |  |  | 
Cc1ccc(N/N=C2\C(=O)N(c3ccc(S(N)(=O)=O)cc3)N=C2C(F)(F)F)cc1 [5p, (4Z)-2-[4-(Aminosulfonyl)phenyl]-4-[2-(4-methylphenyl)hydrazinylidene]-5-(trifluoromethyl)-2,4-dihydro-3H-pyrazol-3-one] | 3.6 ± 0.9 |  | i.t.s. |  |  | > 200 |  | > 200 | > 200 | > 200 |  |  | 
CC1=NNC(=O)/C1=N\Nc1ccc(C)cc1 [9a, (4Z)-5-Methyl-4-[2-(4-methylphenyl)hydrazinylidene]-2,4-dihydro-3H-pyrazol-3-one] | 4.3 ± 1 | 24.3 ± 1.82 | 3.23 ± 0.50 | 3.16 ± 0.25 | 7.68 |  |  |  |  |  |  |  | 
Cc1ccc(N/N=C2\C(=O)N(c3ccccc3)N=C2C(F)(F)F)cc1 [5f, (4Z)-4-[2-(4-Methylphenyl)hydrazinylidene]-2-phenyl-5-(trifluoromethyl)-2,4-dihydro-3H-pyrazol-3-one] |  | 20.5 ± 2.52 | i.t.s. | 4.49 ± 0.18 | 4.56 | 200 (≈ 578 µM) |  | > 200 | 200 (≈ 578 µM) | 200 (≈ 578 µM) |  |  | 
Cc1ccc(N/N=C2\C(=O)NN=C2C(F)(F)C(F)(F)C(F)(F)F)cc1 [7a, (4Z)-5-(Heptafluoropropyl)-4-[2-(4-methylphenyl)hydrazinylidene]-2,4-dihydro-3H-pyrazol-3-one] | 10.5 ± 1.1 |  | 2.80 ± 0.01 |  |  | > 200 | 35.6 ± 0.8 | > 200 | > 200 | 200 (≈ 540 µM) |  |  | 
Cc1ccc(N/N=C2\C(=O)N(C)N=C2C(F)(F)F)cc1 [5d, (4Z)-2-Methyl-4-[2-(4-methylphenyl)hydrazinylidene]-5-(trifluoromethyl)-2,4-dihydro-3H-pyrazol-3-one] |  |  | 1.27 ± 0.15 |  |  | 200 (≈ 704 µM) | 4.5 ± 1.1 | 200 (≈ 704 µM) | > 200 | 200 (≈ 704 µM) |  |  | 
